Patent US9943504B2, “Arginine methyltransferase inhibitors and uses thereof” (Epizyme, Inc., priority 2013, dated 2018)

Molecular target: T1, human PRMT8 (Homo sapiens, UniProt Q9NR22)
T1 construct: Full-length human PRMT8 (NM_019854.4) isoform 1 transcript clone; made in house; host or cells: E. coli BL21(DE3) Gold
Assay: PRMT8 Biochemical Assay
Settings: biochemical evaluation, peptide substrate
Description: S-adenosylmethionine (SAM), S-adenosylhomocysteine (SAH), bicine, Tween20, dimethylsulfoxide (DMSO), bovine skin gelatin (BSG), isopropyl-β-D-thiogalactopyranoside (IPTG), and Tris(2-carboxyethyl)phosphine hydrochloride solution (TCEP) were purchased from Sigma-Aldrich at the highest level of purity possible. ^3H-SAM was purchase from American Radiolabeled Chemicals with a specific activity of 80 Ci/mmol. 384-well streptavidin Flashplates were purchased from PerkinElmer.
Peptide representative of human histone H4 residues 31-45 was synthesized with an N-terminal linker-affinity tag motif and a C-terminal amide cap by 21st Century Biochemicals. The peptide was purified by high-performance liquid chromatography (HPLC) to greater than 95% purity and confirmed by liquid chromatography mass spectrometry (LC-MS). The sequence was Biot-Ahx-[…]-amide (SEQ ID NO.: 8).
The resulting construct encodes an N-terminal GST tag and a thrombin cleavage sequence ([…] […]
The assays were all performed in a buffer consisting of 20 mM Bicine (pH=7.6), 1 mM TCEP, 0.005% BSG, and 0.002% Tween 20, prepared on the day of use. […] The plates were then read in a PerkinElmer TopCount plate reader to measure the quantity of ^3H-labeled peptide bound to the Flashplate surface, measured as disintegrations per minute (dpm) or alternatively, referred to as counts per minute (cpm). […]

T1 sequence (Q9NR22 whole entry, canonical isoform): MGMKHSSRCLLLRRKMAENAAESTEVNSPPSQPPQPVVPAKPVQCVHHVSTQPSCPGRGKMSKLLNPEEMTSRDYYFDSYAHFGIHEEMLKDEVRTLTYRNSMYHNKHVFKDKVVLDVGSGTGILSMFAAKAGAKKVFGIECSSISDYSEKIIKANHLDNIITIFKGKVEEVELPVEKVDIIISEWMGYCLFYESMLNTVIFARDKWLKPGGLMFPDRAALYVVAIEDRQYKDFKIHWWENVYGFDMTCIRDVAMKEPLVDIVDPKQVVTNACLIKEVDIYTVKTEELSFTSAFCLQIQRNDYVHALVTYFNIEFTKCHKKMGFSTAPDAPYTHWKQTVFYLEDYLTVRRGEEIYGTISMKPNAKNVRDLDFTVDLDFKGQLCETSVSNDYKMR

Q: CN(CCN)Cc1n[nH]c2cccc(OCc3ccccc3)c12 [Compound 1] was tested. Which IC50 did it give?
A: The IC50 was 101 to 1000 nM.
